Experimental data: US12410123B2, “N-[8-(2-hydroxybenzoyl)amino]potassium octanoate crystal polymorph, and preparation method therefor and use thereof” (SCIWIND BIOSCIENCES CO., LTD., priority 2020, dated 2025)

What was measured:
Assay type in all cases: physicochemical
[1] = Solid-state stability of PNAC crystal forms (storage; XRPD and HPLC)
Experimental: The third group was kept under the conditions of 25° C. and 60% relative humidity for 2 weeks to obtain a solid sample, and then the three groups of solid samples were respectively evaluated for physical and chemical stability by XRPD and HPLC assay.
The purity of main peak was calculated by normalization method.

[2] = Stability during preparation (grinding, tableting, airflow crushing; XRPD)
Source text: Three groups of solid samples were characterized by XRPD to evaluate their physical stability.

[3] = Solution stability of different crystal forms of PNAC in aqueous solution (500 mg/mL); conditions: 500 mg/mL in purified water
Experimental: The stability differences between different salt forms and different crystal forms in aqueous solution under the condition of high concentration (500 mg/mL) were compared, and the results are shown in Table 5 (there is no difference in the dissolution and solution storage process of the samples of PNAC crystal forms I-IV).

[4] = Airflow crushing (injection pressure 0.4 MPa, pulverization pressure 0.2 MPa)
[5] = solid, 60° C. for 24 h, 40° C. and 75% relative humidity for two weeks, 25° C. and 60% relative humidity for 2 weeks

Compound | overall solid-state stability (conclusion from Table 15) [1] | crystal form after treatment (XRPD) ([1]; 25° C./60% RH, 2 W) | crystal form after treatment (XRPD) ([1]; 25° C./75% RH, 2 W) | crystal form after treatment (XRPD) ([1]; 60° C., 24 h) | change of crystal form after grinding, tableting and airflow crushing (XRPD) [2] | crystal form after treatment (XRPD) [2, 4] | crystal form after treatment (XRPD) ([2]; Manual grinding (10 min)) | crystal form after treatment (XRPD) ([2]; Tableting (pressure of 3 kN)) | storage time at which flocs began to appear in the solution ([3]; 4° C.) | storage time at which flocs began to appear in the solution ([3]; room temperature) | crystal form after storage (XRPD) [1, 5] | relative purity (HPLC) after storage [1, 5]
O=C([O-])CCCCCCCNC(=O)c1ccccc1O.[K+] [crystal Form I, Potassium N-[8-(2-hydroxybenzoyl)amino]octanoate] | very stable | crystal Form II | crystal Form II | crystal Form I | does not change | crystal Form I | crystal Form I | crystal Form I |  |  |  | 
O=C([O-])CCCCCCCNC(=O)c1ccccc1O.[K+] [crystal Form III, Potassium N-[8-(2-hydroxybenzoyl)amino]octanoate] |  | crystal Form II | crystal Form II | crystal Form I |  |  |  |  |  |  |  | 
O=C([O-])CCCCCCCNC(=O)c1ccccc1O.[K+] [crystal Form IV, Potassium N-[8-(2-hydroxybenzoyl)amino]octanoate] |  | crystal Form II | crystal Form II | crystal Form I |  | crystal Form IV | crystal Form IV | crystal Form IV |  |  |  | 
O=C([O-])CCCCCCCNC(=O)c1ccccc1O.[Na+] [SNAC, monosodium N-[8-(2-hydroxybenzoyl)amino]octanoate] |  |  |  |  |  |  |  |  | 0.5 h | 1 h |  | 
O=C([O-])CCCCCCCNC(=O)c1ccccc1O.[K+] [crystal Form II, Potassium N-[8-(2-hydroxybenzoyl)amino]octanoate] | very stable | crystal Form II | crystal Form II | crystal Form II | does not change | crystal Form II | crystal Form II | crystal Form II |  |  | the crystal form has not changed | 100%
